# Test results as given in PubChem BioAssay AID2060903 (Molecular Pharmacology Branch, DTP, NCI, 2025).
# Tested on: 377384-186-R-J1-PDC complex spheroid viability
# Assay: Anticancer human tumor 377384-186-R-J1-PDC patient-derived pancreatic carcinoma cell line growth inhibition [RAS]
# Settings: for IC50: curve of first compound; for viability, T/C: stronger effect = lower value
# Source text: RAS pathway inhibitors in Combinations in Complex Spheroids
# A high-throughput screen of multi-cell type tumor spheroids was designed to identify active combinations of RAS pathway inhibitors and targeted small molecules. Complex spheroids include a stromal component modeled by human endothelial cells (HUVEC) and fibroblasts modeled by human mesenchymal stem cells (MSCs). The concentration ranges selected for each drug and investigational agent were based upon clinically achievable concentrations if the clinical Cmax of the agent was known.
# Compounds. The drugs and investigational agents: abemaciclib (NSC768073), cobimetinib (NSC768068), divarasib (GDC6063, NSC841802), docetaxel (NSC628503), GDC-1971 (RLY-1971, NSC841576), gemcitabine (NSC613327), inavolisib (NSC800729), ipatasertib (NSC767898), KB-0742 (NSC834161), MRTX-1133 (NSC836407), osimertinib (NSC779217), RMC-4630 (NSC839698), RMC-6236 (NSC851965), RMC-6291 (NSC852671), Ro-3306 (NSC812927), sapanisertib (NSC764658), SN-38 (NSC673596), staurosporine (NSC755774), SY5609 (NSC837396), and tovorafenib (DAY101, NSC766906), were obtained from the National Cancer Institute (NCI) Developmental Therapeutics Program Chemical Repository. The FDA-approved anticancer drug set is available from the NCI Developmental Therapeutics Program. […] The stock solutions were prepared in dimethyl sulfoxide (DMSO, Sigma-Aldrich, St. Louis, MO, cat. D2650) at 800-fold the tested concentration and stored at -70 degrees C prior to their use. All drugs and investigational agents were tested over a range starting from a high concentration at or near the clinical Cmax and decreasing in half-log increments. If the clinical Cmax for an agent had not been determined, the highest concentration tested was 10 microM.
# Cell Culture. All cells were maintained in an incubator at 37 degrees C and 5% CO2 with 95% humidity. The PDC lines were cultured according to standard operating procedures established by the NCI PDMR. All PDCs were thawed and cultured in Matrigel-coated flasks prepared with a working solution of 1X Ham's F-12 nutrient mix, without supplementation (Invitrogen, Waltham, MA, cat. 11765054), 100 U/mL penicillin-streptomycin (Invitrogen, cat. 15140122), and 2.5% Matrigel (Corning Inc., Corning, NY, cat. 354248) for the first three passages. The 362531-283-R-J2-PDC and 782815-120-R-J1-PDC lines were cultured in 6C/Colon 1B media, which includes advanced DMEM/F-12 (Thermo Fisher Scientific, cat. 12634028), 10 mM HEPES (Thermo Fisher Scientific, cat. 15630080), 1X GlutaMAX supplement (Thermo Fisher Scientific, cat. 35050061), 0.1 mg/mL primocin (InvivoGen, San Diego, CA, cat. ant-pm-2), 10% defined fetal bovine serum, heat inactivated (HyClone Laboratories Inc., Logan, UT, cat. SH30070.03HI), 50% L-WRN conditioned media (ATCC, cat. CRL-3276), 1.25 mM N-Acetyl-L-cysteine (Sigma-Aldrich, cat. A9165), 10 mM nicotinamide (Sigma-Aldrich, cat. N0636), 1X B-27 supplement (Thermo Fisher Scientific, cat. 17504044), 1X N-2 supplement (Thermo Fisher Scientific, cat. 17502048), 50 ng/mL human EGF (Thermo Fisher Scientific, cat. PHG0311), and 10 microM Y-27632 dihydrochloride (Tocris Bioscience, cat. 1254). The K12877-001-R-J1-PDC line was cultured in 6I media, which includes all 6C/Colon 1B media plus 10 ng/mL human FGF-10 (PeproTech, cat. 100-26), 1 ng/mL human FGF-2 (PeproTech, cat. 100-18B), 1 µM prostaglandin E2 (Tocris Bioscience, cat. 2296), […] hydrocortisone (Sigma-Aldrich, cat. H4001), and […] bovine insulin (Sigma-Aldrich, cat. I6634). The K86415-001-R-J1-PDC line was cultured in 6D media, which includes all 6C/Colon 1B media components minus the L-WRN conditioned media. The 485176-168-R4-J1-PDC was cultured in PANC media, which includes all 6C/Colon 1B media plus 100 ng/mL human FGF-10 (PeproTech, cat. 100-26), 500 nM SB-431542 (Selleckchem, cat. S1067), and 10 nM gastrin (Tocris Bioscience, cat. 3006). […]
# 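Note: spheroids exposed to compounds for seven days before readout.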
structure (smiles),measurement,setting,value
Nc1ccn(C2OC(CO)C(O)C2(F)F)c(=O)n1 (configuration not stated) + C=CC(=O)N1CCN(c2nc(OCC3CCCN3C)nc3c(F)c(-c4nc(N)cc(C)c4C(F)(F)F)c(Cl)cc23)C(C)C1,IC50,second compound 0.00316 µM,6.73 nM
same,IC50,second compound 0.01 µM,7.09 nM
same,IC50,second compound 0.0316 µM,6.58 nM
same,IC50,second compound 0.1 µM,5.53 nM
same,IC50,second compound 0.316 µM,7.31 nM
same,IC50,second compound 1 µM,6.18 nM
same,"viability, T/C","second compound 0.00316 µM, first compound 0.00316 µM",76.9%
same,"viability, T/C","second compound 0.00316 µM, first compound 0.01 µM",35.9%
same,"viability, T/C","second compound 0.00316 µM, first compound 0.0316 µM",11.5%
same,"viability, T/C","second compound 0.00316 µM, first compound 0.1 µM",4.72%
same,"viability, T/C","second compound 0.00316 µM, first compound 0.316 µM",3.54%
same,"viability, T/C","second compound 0.00316 µM, first compound 1 µM",2.18%
same,"viability, T/C","second compound 0.01 µM, first compound 0.00316 µM",81.7%
same,"viability, T/C","second compound 0.01 µM, first compound 0.01 µM",36.5%
same,"viability, T/C","second compound 0.01 µM, first compound 0.0316 µM",13.4%
same,"viability, T/C","second compound 0.01 µM, first compound 0.1 µM",4.91%
same,"viability, T/C","second compound 0.01 µM, first compound 0.316 µM",3.97%
same,"viability, T/C","second compound 0.01 µM, first compound 1 µM",3.71%
same,"viability, T/C","second compound 0.0316 µM, first compound 0.00316 µM",74%
same,"viability, T/C","second compound 0.0316 µM, first compound 0.01 µM",36.3%
same,"viability, T/C","second compound 0.0316 µM, first compound 0.0316 µM",9.49%
same,"viability, T/C","second compound 0.0316 µM, first compound 0.1 µM",4.74%
same,"viability, T/C","second compound 0.0316 µM, first compound 0.316 µM",3.22%
same,"viability, T/C","second compound 0.0316 µM, first compound 1 µM",2.97%
same,"viability, T/C","second compound 0.1 µM, first compound 0.00316 µM",60.4%
same,"viability, T/C","second compound 0.1 µM, first compound 0.01 µM",38.9%
same,"viability, T/C","second compound 0.1 µM, first compound 0.0316 µM",12%
same,"viability, T/C","second compound 0.1 µM, first compound 0.1 µM",3.63%
same,"viability, T/C","second compound 0.1 µM, first compound 0.316 µM",3.27%
same,"viability, T/C","second compound 0.1 µM, first compound 1 µM",2.81%
same,"viability, T/C","second compound 0.316 µM, first compound 0.00316 µM",80.5%
same,"viability, T/C","second compound 0.316 µM, first compound 0.01 µM",38.5%
same,"viability, T/C","second compound 0.316 µM, first compound 0.0316 µM",13.1%
same,"viability, T/C","second compound 0.316 µM, first compound 0.1 µM",4.24%
same,"viability, T/C","second compound 0.316 µM, first compound 0.316 µM",3.5%
same,"viability, T/C","second compound 0.316 µM, first compound 1 µM",3.38%
same,"viability, T/C","second compound 1 µM, first compound 0.00316 µM",65.3%
same,"viability, T/C","second compound 1 µM, first compound 0.01 µM",38.8%
same,"viability, T/C","second compound 1 µM, first compound 0.0316 µM",16.7%
same,"viability, T/C","second compound 1 µM, first compound 0.1 µM",5.53%
same,"viability, T/C","second compound 1 µM, first compound 0.316 µM",4.43%
same,"viability, T/C","second compound 1 µM, first compound 1 µM",4.1%
